Results published in patent publication US20240092756A1, “METHODS AND COMPOSITION FOR KRAS MODIFICATIONS” (2692372 ONTARIO, INC., priority 2020, published 2024).

Columns and labels:
[1] = target: T1, KRAS G12C (SEQ ID NO:1 or SEQ ID NO:2) (Homo sapiens, UniProt P01116, G12C); test: Intact mass analysis (LC-MS) of covalent modification, KRAS G12C; type: binding; design: key to KRAS G12C Modification: b: KRAS G12C modified; conditions: intact mass spectrometry; covalent modification of KRAS G12C FL
T1 construct: purchased
Experimental: (§1) The covalent modification of the proteins with the compounds were evaluated using intact mass analysis by liquid chromatography-mass spectrometry instrument (LC-MS/MS).
(§2) The reaction solution (20 μL) was prepared in 96-well plate and contained the protein (2 μM), the compound (100 μM), HEPES buffer (20 mM, pH 8), 2% DMSO, 2% glycerol, and 150 mM NaCl. The reaction was allowed to proceed for 24 h at 25° C. The reaction solution (1 μL) was injected into the LC/MS/MS without any further sample preparation.
(§3) The LC-MS/MS instrument comprises of a Waters G2-XS quadrupole-time of flight (QTof) mass spectrometer and a Waters Acuity I-class Ultra-High Performance Liquid Chromatography (UPLC) system. The I-class UPLC system includes a binary solvent manager (BSM), and an Acquity sample manager (SM). The mobile phase consisted of: A) 0.1% (v/v) formic acid in MilliQ water; B) 0.1% (v/v) formic acid acetonitrile. Gradients were run over 5 min and proceeded as follows: A:B, 85:15, 0.0-0.7 min, 85:15→15:85, 0.7-1.5 min, 10:90, 1.5-4 min, 10:90→85:15, 4-4.5 min, 85:15, 4.5-5 min. The analytical column was a Waters BEH C4 column 1.7 μm (50×1 mm) column with pore sizes of 300 Å. The TOF MS data was collected in positive ion mode (m/z of 400-2000 Da) using MassLynx software (Waters).
(§4) The spectral deconvolution was performed using UNIFI software (Waters). The added mass of the protein upon covalent modification to cysteine residues were specified. Multiple modification of up to 8 cysteine was allowed. All the adducts with signal intensities of <2% of the base peak were ignored. The % modification was calculated as the adduct signal intensity over the total intensities of the protein peaks and the adducts.

KRAS G12C = KRAS G12C (Homo sapiens, UniProt P01116, G12C); test: SOS1-catalyzed KRAS coupled nucleotide exchange assay (Alpha technology); type: biochemical; design: His; key: A: KRAS G12C bound and modulated; conditions: inhibition of SOS1 mediated KRAS nucleotide exchange
Experimental: Method I: The inhibition of the SOS1-catalyzed nucleotide exchange activity of KRAS (e.g., KRAS G12C/C118A) was measured using Alpha (Amplified Luminescent Proximity Homogeneous Assay) technology. 20 nM GDP-bound human KRAS (G12C/C118A) protein was incubated with two-fold serially-diluted test compound or DMSO for 5 minutes at ambient temperature in reaction buffer (25 mM HEPES, pH 7.4; 10 mM MgCl2; 0.01% Triton X-100). For all subsequent steps, DTT was added to the reaction buffer at a final concentration of 1 mM. Next, GTP and SOS-1 were added in DTT-reaction buffer at final concentrations of 1.25 mM or 500 nM, respectively, and incubated at RT for 30 minutes. Finally, c-RAF RBD (50 nM final), Alpha glutathione donor beads (PerkinElmer; 20 μg/mL final), and AlphaLISAnickel chelate acceptor beads (PerkinElmer; 20 μg/mL final), all diluted in DTT-reaction buffer, were added. The reaction mixture was incubated at RT for 5 min, and then the plates were read on an EnVision® Multilabel Reader using the AlphaScreen protocol. Luminescence signal was measured at 570 nm following a 180 ms excitation at 680 nm. Signal intensity corresponded with the association of c-RAF RBD with GTP-bound KRAS G12C/C118A and was normalized to DMSO control.
Method II: Inhibition of the SOS1-catalyzed nucleotide exchange activity of KRAS^G12C was measured using Alpha technology (PerkinElmer). 50 nM GDP-bound human KRAS^G12C protein was incubated with serially-diluted compound or DMSO for 2 hrs at RT in RBD-RAS binding buffer (BPSBioscience). 1 mM GTP and 500 nM SOS-1 were added to the reaction mixture and incubated at RT for 30 min. GST-tagged RBD-cRAF was then added to the reaction mixture at a final concentration of 2.5 nM and incubated at RT for 30 min. Finally, Alpha Glutathione acceptor beads and Nickel chelate donor beads (PerkinElmer) were diluted to 1:500 and 1:250, respectively, and added to the reaction mixture. The final reaction was incubated at RT for 30 min. Plates were read on a TECAN SPARK® Multiplate Reader. The luminescence signal was measured at 615 nm following excitation at 680 nm. Signal intensity was normalized to DMSO control.

[2] = test system: phospho-ERK1/2 in MIA PaCa-2 cells (express KRAS G12C); test: ERK1/2 phosphorylation in MIA PaCa-2 cells; type: cell-based, human; design: key: X: KRAS G12C bound and modulated in cells
Experimental: MIA PaCa-2 cells were cultured in Dulbecco's Modified Eagle's Medium (Wisent) supplemented with 10% FBS, 2.5% horse serum, and 1% penicillin/streptomycin. Cells were seeded in 6-well plates at 500,000 cells/well and incubated at 37° C., 5% CO2 for 16 hours. Cells were treated with the indicated concentrations of compound or DMSO alone and incubated at 37° C., 5% CO2 for 6 or 24 hours. Conditioned media was discarded, and adherent cells were washed with PBS before they were scraped. Cell suspensions were centrifugated at 2,000 RPM for 5 minutes at 4° C. and supernatants were discarded. Cell pellets were resuspended with 1×RIPA buffer (Millipore) and incubated on ice for 15 minutes. Protein lysates were extracted by centrifugating at 20,000 RPM for 20 minutes at 4° C. Proteins were separated and total KRas protein levels were quantified by Simple Western Immunoassay (ProteinSimple) using the 2-40 kDa Separation Module for Jess according to the manufacturer's protocol, using a protein concentration of 0.5 μg/μl and antibodies targeting KRas (clone #4F3, Sigma) and GAPDH (clone #14C10, Cell Signaling) diluted to 1:10 and 1:1600, respectively, where the latter was used as a loading control. A 3:1 ratio of rabbit to mouse HRP-conjugated secondary antibodies was used for detection. KRas protein levels were quantified relative to GAPDH loading levels and subsequently normalized to the DMSO control. Phosphorylated ERK1/2 levels were quantified by Simple Western Immunoassay (ProteinSimple) using the Protein Normalization Assay Module for Jess according to the manufacturer's protocol using a protein concentration of 0.5 μg/μl and an antibody targeting phosphor-ERK1/2 (clone #D13.14.4E, Cell Signalling) diluted to 1:10. Phosphorylated ERK1/2 levels were normalized to the Jess Protein Normalization Reagent loading control and subsequently to the DMSO control.
MIA PaCa-2 cells were cultured in Dulbecco's Modified Eagle's Medium (Wisent) supplemented with 10% FBS, 2.5% horse serum, and 1% penicillin/streptomycin. Cells were seeded in 96-well plates at a density of 25,000 cells/well and incubated at 37° C., 5% CO2 for 24 hours. The next day, cells were starved in cell culture media containing 1% FBS only at 37° C., 5% CO2 for 16 hours. Following starvation, serially-diluted compounds or DMSO alone were added to cells and incubated at 37° C., 5% CO2 for 1 or 3 hours. Prior to cell lysis, 25 ng/ml human epidermal growth factor (hEGF) (Sigma) was added to the cells and incubated at 37° C., 5% CO2 for 10 minutes. Conditioned media was discarded, and adherent cells lysed and basal ERK1/2 phosphorylation levels were measured using the Phospho-ERK (Thr202/Tyr204) Cellular HTRF kit (Perkin Elmer) according to the manufacturer's protocol. The fluorescent signal of the acceptor antibody at a wavelength of 665 nm was normalized to that of the donor antibody at 620 nm. HTRF ratios were plotted and relative IC50 values were obtained using Prism (GraphPad).

[3] = target: KRAS G12C Lite (SEQ ID NO:3) (Homo sapiens, UniProt P01116, C118S/C51S/C80S/G12C/S136P/S39C); test: Intact mass analysis (LC-MS) of covalent modification, KRAS G12C Lite; type: binding; design: key to KRAS Lite Modification: a: KRAS Lite modified; conditions: intact mass spectrometry; covalent modification of KRAS G12C Lite
Experimental: as §1, §2, §3, §4

KRAS G12C Modification [1]	KRAS-SOS1 Nucleotide Exchange (KRAS G12C)	KRAS Lite Modification [3]	SMILES	pERK - MIA PaCa-2 - (6 hours, 5 uM) [2]
b	A	–	COc1c(F)c(F)c(F)c(F)c1S(=O)(=O)N1CCN(c2nc(=O)n(-c3c(C)ccnc3C(C)C)c3nc(-c4c(O)cccc4F)c(F)cc23)[C@@H](C)C1 [Compound 5A, 6-fluoro-7-(2-fluoro-6-hydroxyphenyl)-1-(2-isopropyl-4-methylpyridin-3-yl)-4-((S)-2-methyl-4-((2,3,4,5-tetrafluoro-6-methoxyphenyl)sulfonyl)piperazin-1-yl)pyrido[2,3-d]pyrimidin-2(1H)-one]	X
b	–	a	Cc1cccc(C)c1-c1ccc2cc(CNS(=O)(=O)c3c(F)c(F)c(F)c(F)c3F)cnc2c1 [Compound 19A, N-[[7-(2,6-dimethylphenyl)-3-quinolyl]methyl]-2,3,4,5,6-pentafluoro-benzenesulfonamide]	X
–	A	a	O=S(=O)(c1c(O)c(F)c(F)c(F)c1F)N1CCN(c2ncnc3c2CCN(c2cccc4ccccc24)C3)CC1 [Compound 31A, 2,3,4,5-tetrafluoro-6-((4-(7-(naphthalen-1-yl)-5,6,7,8-tetrahydropyrido[3,4-d]pyrimidin-4-yl)piperazin-1-yl)sulfonyl)phenol]	–
b	A	a	Cc1ccnc(C(C)C)c1-n1c(=O)nc(N2CCN(S(=O)(=O)c3c(F)c(F)c(F)c(F)c3OC(F)F)C[C@@H]2C)c2cc(F)c(-c3c(O)cccc3F)nc21 [Compound 16A, 4-((S)-4-((2-(difluoromethoxy)-3,4,5,6-tetrafluorophenyl)sulfonyl)-2-methylpiperazin-1-yl)-6-fluoro-7-(2-fluoro-6-hydroxyphenyl)-1-(2-isopropyl-4-methylpyridin-3-yl) pyrido[2,3-d]pyrimidin-2(1H)-one]	–
b	–	–	O=C(COc1ccc(Cl)cc1Cl)N1CCN(S(=O)(=O)c2c(F)c(F)c(F)c(F)c2C(F)(F)F)CC1 [Compound 51A, 2-(2,4-dichlorophenoxy)-1-(4-((2,3,4,5-tetrafluoro-6-(trifluoromethyl)phenyl)sulfonyl)piperazin-1-yl)ethan-1-one]	–
–	–	a	COc1c(F)c(F)c(F)c(F)c1S(=O)(=O)Nc1nc(=O)n(-c2c(C)ccnc2C(C)C)c2nc(Cl)c(F)cc12 [Compound 8A, N-(7-chloro-6-fluoro-1-(2-isopropyl-4-methylpyridin-3-yl)-2-oxo-1,2-dihydropyrido[2,3-d]pyrimidin-4-yl)-2,3,4,5-tetrafluoro-6-methoxybenzenesulfonamide]	–
b	A	a	Cc1ccnc(C(C)C)c1-n1c(=O)nc(N2CCN(S(=O)(=O)c3c(F)c(F)c(F)c(F)c3F)C[C@@H]2C)c2cc(F)c(Cl)nc21 [Compound 2A, 7-chloro-6-fluoro-1-(2-isopropyl-4-methylpyridin-3-yl)-4-((S)-2-methyl-4-((perfluorophenyl)sulfonyl)piperazin-1-yl)pyrido[2,3-d]pyrimidin-2(1H)-one]	–
–	–	a	COc1c(F)c(F)c(F)c(F)c1S(=O)(=O)Nc1nc(=O)n(-c2c(C)ccnc2C(C)C)c2nc(-c3c(O)cccc3F)c(F)cc12 (atropisomer, axis not shown) [Compound 9A, 2,3,4,5-tetrafluoro-N-(6-fluoro-7-(2-fluoro-6-hydroxyphenyl)-1-(2-isopropyl-4-methylpyridin-3-yl)-2-oxo-1,2-dihydropyrido[2,3-d]pyrimidin-4-yl)-6-methoxybenzenesulfonamide]	X
–	A	a	Cc1ccnc(C(C)C)c1-n1c(=O)nc(NS(=O)(=O)c2c(F)c(F)c(F)c(F)c2F)c2cc(F)c(Cl)nc21 [Compound 4A, N-(7-chloro-6-fluoro-1-(2-isopropyl-4-methylpyridin-3-yl)-2-oxo-1,2-dihydropyrido[2,3-d]pyrimidin-4-yl)-2,3,4,5,6-pentafluorobenzenesulfonamide]	X
–	–	a	C[S+]([O-])c1c(F)c(F)c(F)c(F)c1N1CCN(c2ncnc3c2CCN(c2cccc4cccc(Cl)c24)C3)CC1 (racemic) [Compound 43A, 7-(8-chloronaphthalen-1-yl)-4-(4-(2,3,4,5-tetrafluoro-6-(methylsulfinyl)phenyl)piperazin-1-yl)-5,6,7,8-tetrahydropyrido[3,4-d]pyrimidine]	–
b	–	–	O=C(COc1ccc(Cl)cc1Cl)NC1CN(S(=O)(=O)c2c(F)c(F)c(F)c(F)c2F)C1 [Compound 50A, 2-(2,4-dichlorophenoxy)-N-(1-((perfluorophenyl)sulfonyl)azetidin-3-yl)acetamide]	–
